# Measured values as given in US8568972B2, “Substances causing differentiation” (Medicyte GmbH, priority 2000, dated 2013).
# Entries after “also recorded” stand apart in the source; their conditions may differ.
# Assays:
# Assay type in all cases: cell-based, human
# U87H-GFP [1] = experiment: Flow cytometry (FACS) of H-GFP fusion gene expression under the hCMV promoter in reporter cell line; conditions: 48 h; for increase in the fluorescence intensity mean value: compared to untreated cells
# From the text: (§1) U87H-GFP is a cell line derived from the human glioblastoma cell line U87 after stable transfection with plasmid pCMV-hygroEGFP. This plasmid which is integrated into the genomic DNA is derived from PCR-Script™ (Stratagene) and carries a fusion gene downstream of the human CMV promoter. This fusion gene contains the gene for resistance to hygromycin, which is linked to the gene coding for the enhanced green fluorescent protein (EGFP). The resulting gene (called H-GFP) codes for a protein which imparts resistance to hygromycin B and which can be readily detected by fluorescence microscopy and flow cytometry analysis. […] U87H-GFP and the parent line U87 were cultured in Dulbecco's Modified Eagle's Medium, (D-MEM, low glucose, Gibco, BRL) supplemented with 10% fetal calf serum (Seromed), 100 units/ml penicillin, 100 μg/ml streptomycin and 1 μg/ml amphotericine B (Gibco, BRL) at 37° C. in a humidified atmosphere containing 5% CO2. For the U87H-GFP cell line, the culture medium was supplemented with 600 units/ml hygromycin B (Calbiochem). U87H-GFP and the parent cells were seeded at 1-2×10^5 cells/well on 6-well plates (Nuclon, NUNC), using D-MEM without hygromycin B, and incubated for adhesion for 24 h. This was followed by adding 5-azacytidine and trichostatin A (Sigma Chemicals, Co.) at different final concentrations (2.5-5-10-20-40 μM for Aza; from 10 nM to 3 μM for TSA) to the culture medium. After two days of treatment, fluorescence microscopy and flow cytometry analyses were carried out. In order to prepare samples for FACS analysis, cells were incubated in the 6-well plates in 0.05% trypsin containing 0.5 mM EDTA (Gibco, BRL) at 37° C. for 5 min, followed by stopping the trypsin action by adding two volumes of culture medium. The cells were harvested, centrifuged at 500×g for 5 min and resuspended in 1 ml complete D-MEM. In order to stain dead cells, propidium iodide (final concentration 10 μg/ml) was added to each sample. The cells were then again centrifuged and resuspended in phosphate-buffered saline (PBS 1×, pH 7.4), before analyzing them by means of FACS. The cells were analyzed using FACScalibur (Becton Dickinson) with the flow rate corresponding to approximately 500 events/s. In order to exactly define a cell population and to exclude cell debris and aggregates, a region of interest was established on the dot plot (FSC compared to SSC). In the two-parameter histogram of propidium iodide, dead cells were distinguished by comparison to forward angle light scatter (FSC). The fluorescence intensity of individual cells was measured on a logarithmic scale, each logarithmic histogram representing 2×10^4 counted events. The fluorescence intensity mean value (MFI) was the parameter used for defining the increase in the fluorescence intensity in each cell population.
# U87 [2] = experiment: Flow cytometry (FACS) of background fluorescence in parent cell line (negative control line); conditions: 48 h, parent cells
# From the text: as §1, with “In the two-parameter histogram of propidium iodide, dead cells were distinguished by comparison to forward angle light scatter (FSC).” left out
# U87H-GFP [3] = experiment: Fluorescence microscopy of H-GFP gene expression; conditions: for increase in the green fluorescent signal: 48 h; for upregulation of the CMV promoter, visible due to increased GFP fluorescence: very low concentrations, within two days, after removal of hygromycin
# Protocol: U87H-GFP and the parent cells were seeded at 1-2×10^5 cells/well on 6-well plates (Nuclon, NUNC), using D-MEM without hygromycin B, and incubated for adhesion for 24 h. This was followed by adding 5-azacytidine and trichostatin A (Sigma Chemicals, Co.) at different final concentrations (2.5-5-10-20-40 μM for Aza; from 10 nM to 3 μM for TSA) to the culture medium. After two days of treatment, fluorescence microscopy and flow cytometry analyses were carried out. Approximately 10^5 cells of each cell line were seeded on polylysine-coated coverslips, treated with different concentrations of Aza and TSA for 48 h and then fixed in 5% formaldehyde at room temperature for 30 min. This was followed by analyzing all samples under a fluorescence microscope (Axiophot, Zeiss, Germany) and recording various images which correspond to the different final concentrations of each medicament (FIG. 1).
# U87 [4] = experiment: Cell cycle analysis (BrdU incorporation / 7-AAD, FACS), parent line; conditions: U87, 5 μM Aza, 2 days
# Protocol: (§2) U87H-GFP and the parent cells were seeded at 5×10^3/cm^2 in T25 flasks (Nuclon, NUNC), using D-MEM without hygromycin B for both cell lines. Half of the flasks were treated with 5 μM Aza and the other, as a negative control, without any medicaments. After 42 h, BrdU was added to the medium (final concentration of 10 μM), and 6 h later the cells were prepared for cell cycle analysis. The cells were harvested, centrifuged at 500×g for 5 min and fixed in chilled 70% strength ethanol for 20 min. BrdU incorporation into the DNA was detected by using 3×10^5 cells of each Aza-treated or untreated cell line. PBS 1×/0.5% BSA (washing buffer) was added, and the cells were centrifuged at 500×g for 5 min. The pellet was then resuspended in a denaturing solution (HCl 1M, PBS 0.5×BSA 0.5%) and washed again after 20 min. This was followed by re-suspending the pellet in 0.1M sodium borate (Na2B4O7), pH 8.5, for 2 min and then adding the washing buffer. After this passage, the total volume of each sample was divided into two halves (one half being used for the isotype antibody, the other one for the BrdU antibody), centrifuged at 500×g for 5 min, resuspended in the buffer containing the anti-isotype or anti-BrdU monoclonal antibodies (Becton Dickinson) and, after 30 min, washed with PBS 1×/0.5% BSA. The supernatant was discarded and the pellet resuspended in RNAse A (final concentration 100 μg/ml); the DNA was stained by also adding to the solution 7-AAD (Via-PROBE, Becton Dickinson). After 1 h (in the dark), the samples were washed and then resuspended in PBS 1×/0.5% BSA. DNA fluorescence of the nuclei (approximately 10^4 nuclei were analyzed for each cell population) was measured by means of the abovementioned FACScan flow cytometer (Becton Dickinson) and the percentages of cells in the G0 and G1, S, G2 and M phases of the cell cycle were analyzed on the basis of the FACScan software programs.
# U87H-GFP [5] = experiment: Cell cycle analysis (BrdU incorporation / 7-AAD, FACS), reporter line; conditions: 5 μM Aza, 2 days
# Protocol: as §2
# tumor cells U87 = experiment: Change in cell morphology (differentiation); conditions: high concentrations
# U87H-GFP [6] = experiment: Flow cytometry (FACS) of H-GFP fusion gene expression under the hCMV promoter in reporter cell line
# U87H-GFP [7] = experiment: Toxicity, number of living cells observed by FACS; conditions: final TSA concentrations of more than 3 μM (data not shown)
# Protocol: In order to prepare samples for FACS analysis, cells were incubated in the 6-well plates in 0.05% trypsin containing 0.5 mM EDTA (Gibco, BRL) at 37° C. for 5 min, followed by stopping the trypsin action by adding two volumes of culture medium. The cells were harvested, centrifuged at 500×g for 5 min and resuspended in 1 ml complete D-MEM. In order to stain dead cells, propidium iodide (final concentration 10 μg/ml) was added to each sample. The cells were then again centrifuged and resuspended in phosphate-buffered saline (PBS 1×, pH 7.4), before analyzing them by means of FACS.
# In order to exactly define a cell population and to exclude cell debris and aggregates, a region of interest was established on the dot plot (FSC compared to SSC). In the two-parameter histogram of propidium iodide, dead cells were distinguished by comparison to forward angle light scatter (FSC). The fluorescence intensity of individual cells was measured on a logarithmic scale, each logarithmic histogram representing 2×10^4 counted events. The fluorescence intensity mean value (MFI) was the parameter used for defining the increase in the fluorescence intensity in each cell population.
# [8] = U87H-GFP, listed as Azacytidine
smiles,measurement,setting,value
"Nc1ncn([C@@H]2O[C@H](CO)[C@@H](O)[C@H]2O)c(=O)n1 [Aza, 5′-azacytidine]",shift of FACS fluorescence profile toward higher fluorescence intensity,U87H-GFP [1]; 2.5 μM Aza,already clearly visible
same,increase in the fluorescence intensity mean value,U87H-GFP [1]; 2.5 μM Aza,two-fold
same,shift of FACS fluorescence profile toward higher fluorescence intensity,U87H-GFP [1]; 20 μM Aza,clearly visible; also recorded: well defined
same,increase in the fluorescence intensity mean value,U87H-GFP [1]; 20 μM Aza,three-fold
same,shift of FACS fluorescence profile,U87 [2]; 20 μM Aza,small shift
same,increase in the fluorescence intensity mean value,U87 [2]; highest concentration used (40 μM Aza),approximately two-fold; also recorded: less than twice
same,increase in the green fluorescent signal,U87H-GFP [3]; 20 μM Aza,clearly defined
same,"upregulation of the CMV promoter, visible due to increased GFP fluorescence",U87H-GFP [3],very strong upregulation
same,Percentages of cells in G1-G0,U87 [4],62.61 ± 0.47%
same,Percentages of cells in G2,U87 [4],13.1 ± 2.36%
same,Percentages of cells in M,U87 [4],10.58 ± 2.85%
same,Percentages of cells in S,U87 [4],13.54 ± 1.25%
same,changes in the cell cycle phases,U87 [4],significant changes
same,Percentages of cells in G1-G0,U87H-GFP [5]; U87 H-GFP,61.53 ± 4.06 %
same,Percentages of cells in G2,U87H-GFP [5]; U87 H-GFP,8.77 ± 1.44%
same,Percentages of cells in M,U87H-GFP [5]; U87 H-GFP,16.26 ± 2.83 %
same,Percentages of cells in S,U87H-GFP [5]; U87 H-GFP,13.3 ± 3.26 %
same,change in percentage of cells in G2 versus untreated,U87H-GFP [5]; U87 H-GFP,increased number
same,effect on different cell cycle phases (apart from G2),U87H-GFP [5]; U87 H-GFP,no significant differences
same,change in percentage of cells in G2 versus untreated,U87H-GFP [5]; [8],small increase
same,effect on different cell cycle phases (apart from G2),U87H-GFP [5]; [8],no significant effect
same,change in the morphology of the cells,tumor cells U87,a change in the morphology of the cells was observed
same,shift of FACS fluorescence profile toward higher fluorescence intensity,"U87H-GFP [6]; 0.5 μM Aza, 48 h",completely superpose those of the untreated cells
same,increase in the fluorescence intensity mean value,"U87H-GFP [6]; 1 μM Aza alone, 48 h, compared to untreated cells",approximately two-fold; also recorded: about a two-fold
same,shift in the fluorescence intensity average,"U87H-GFP [6]; Aza retained for 144 h, identical final concentrations, versus 48 h experiment (data not shown)",same shift
"CC(/C=C/C(=O)NO)=C\[C@@H](C)C(=O)c1ccc(N(C)C)cc1 [TSA, trichostatin A]",shift of FACS fluorescence profile / increase in H-GFP gene expression,U87H-GFP [1]; 100 nM TSA,completely superpose those of the untreated cells; also recorded: does not induce in any way an increase
same,increase in the fluorescence intensity mean value,U87H-GFP [1]; 200 nM TSA alone,approximately two-fold; also recorded: about a two-fold
same,increase in the fluorescence intensity,U87H-GFP [1]; 500 nM TSA,slight but significant increase
same,shift of FACS fluorescence profile toward higher fluorescence intensity,U87H-GFP [1]; 1 μM TSA,clearly visible; also recorded: attains a saturation threshold
same,increase in the fluorescence intensity mean value,U87H-GFP [1]; 1 μM TSA,three-fold
same,increase in the fluorescence intensity mean value,U87H-GFP [1]; 3 μM TSA,four-fold
same,increase in the fluorescence intensity,U87H-GFP [1]; TSA concentrations lower than 500 nM,not at the lower concentrations used
same,shift of FACS fluorescence profile,U87 [2]; 1 μM TSA,small shift
same,increase in fluorescence,U87 [2]; 3 μM TSA,two-fold
same,increase in the green fluorescent signal,U87H-GFP [3]; 1 μM TSA,clearly defined
same,"upregulation of the CMV promoter, visible due to increased GFP fluorescence",U87H-GFP [3],very strong upregulation
same,"toxicity, number of living cells",U87H-GFP [7],highly toxic
same,change in the morphology of the cells,tumor cells U87,a change in the morphology of the cells was observed
